From ChEMBL document CHEMBL1955741, “Identification of fused bicyclic heterocycles as potent and selective 5-HT(2A) receptor antagonists for the treatment of insomnia” (Bioorg Med Chem Lett, 2012)
Active and inactive are the calls of the source. No cut-off for these calls is given here.

Columns and labels:
[1] = molecular target: T1, 5-hydroxytryptamine receptor 2C (Homo sapiens, UniProt P28335)
T1 sequence (P28335 whole entry): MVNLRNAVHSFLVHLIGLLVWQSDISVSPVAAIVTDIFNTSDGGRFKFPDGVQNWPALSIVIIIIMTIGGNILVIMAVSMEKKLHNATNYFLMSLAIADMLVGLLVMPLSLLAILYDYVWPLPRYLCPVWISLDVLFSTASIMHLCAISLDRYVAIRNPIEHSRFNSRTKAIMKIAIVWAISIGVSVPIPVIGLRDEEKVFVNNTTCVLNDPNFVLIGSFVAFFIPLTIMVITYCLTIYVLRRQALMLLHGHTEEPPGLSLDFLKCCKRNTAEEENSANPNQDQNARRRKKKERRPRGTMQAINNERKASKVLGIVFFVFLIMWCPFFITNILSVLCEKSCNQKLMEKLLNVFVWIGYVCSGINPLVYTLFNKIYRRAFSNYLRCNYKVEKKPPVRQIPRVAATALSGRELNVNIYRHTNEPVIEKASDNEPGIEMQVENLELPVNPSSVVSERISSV

[2] = molecular target: 5-hydroxytryptamine receptor 2A (Homo sapiens, UniProt P28223)
Description: Displacement of [125I]-DOI from recombinant human 5HT2A receptor

Rattus norvegicus [3] = assay: Inhibition of DOI-induced hypolocomotion in rat at 1 mg/kg coadministered with DOI 10 mins prior testing; assay type: functional, organism-based; parameters: dose 1 mg/kg
Rattus norvegicus [4] = assay: AUClast in rat at 3 mg/kg, po; assay type: ADME, organism-based, Plasma; parameters: time 0 - last, dose 3 mg/kg, route oral; conditions: in vivo
[5] = molecular target: D(2) dopamine receptor (Homo sapiens) (UniProt P14416); assay: Binding affinity to dopamine receptor D2 at 10 uM
[6] = Half life in rat liver microsomes; assay type: ADME, Microsome
[7] = Plasma protein binding in human; assay type: ADME, cell-free; conditions: read-out: PPB (converted)
[8] = molecular target: T2, D(4) dopamine receptor (Homo sapiens) (UniProt P21917); assay: Binding affinity to dopamine receptor D4 at 10 uM
T2 sequence (whole entry): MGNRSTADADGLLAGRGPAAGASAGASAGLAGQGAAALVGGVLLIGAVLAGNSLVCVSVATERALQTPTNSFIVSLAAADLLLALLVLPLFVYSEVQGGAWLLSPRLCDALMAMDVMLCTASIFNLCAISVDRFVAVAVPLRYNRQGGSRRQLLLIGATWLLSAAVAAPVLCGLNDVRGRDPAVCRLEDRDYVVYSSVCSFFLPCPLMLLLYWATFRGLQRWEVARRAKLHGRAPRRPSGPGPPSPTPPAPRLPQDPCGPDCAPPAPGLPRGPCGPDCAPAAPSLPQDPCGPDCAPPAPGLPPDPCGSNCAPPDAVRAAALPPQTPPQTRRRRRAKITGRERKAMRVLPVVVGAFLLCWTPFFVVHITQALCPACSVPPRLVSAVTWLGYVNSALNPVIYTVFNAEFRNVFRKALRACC

Rattus norvegicus [9] = assay: Volume of distribution at steady state in […] rat; assay type: ADME, organism-based; conditions: in vivo
Canis familiaris [10] = assay: Toxicity in telemetered dog model assessed as change in hemodynamic measures upto 30 mg/kg; assay type: organism-based, Canis lupus familiaris; parameters: dose 30 mg/kg; conditions: in vivo
Rattus norvegicus [11] = assay: Antiinsomnia activity in rat assessed as increase in delta power at 0.1 mg/kg, po after 3 to 4 hrs; assay type: functional, organism-based; parameters: dose 0.1 mg/kg
Cytochrome P450 3A4 = Cytochrome P450 3A4 (Homo sapiens, UniProt P08684); assay: Inhibition of CYP3A4 in human liver microsomes; assay type: ADME, Microsome
Cytochrome P450 2C9 = Cytochrome P450 2C9 (Homo sapiens, UniProt P11712); assay: Inhibition of CYP2C9 in human liver microsomes; assay type: ADME, Microsome
Rattus norvegicus [12] = assay: Antiinsomnia activity in po dosed rat assessed as increase in non-rapid eye movement bout duration after 5 hrs; assay type: functional, organism-based
[13] = molecular target: D(1A) dopamine receptor (Homo sapiens) (UniProt P21728); assay: Binding affinity to dopamine receptor D1 at 10 uM
Rattus norvegicus [14] = assay: Antiinsomnia activity in rat assessed as increase in delta power at 0.1 mg/kg, po after 1 hr; assay type: functional, organism-based; parameters: dose 0.1 mg/kg
Canis familiaris [15] = assay: Toxicity in telemetered dog model assessed as change in ECG measures upto 30 mg/kg; assay type: organism-based, Canis lupus familiaris; parameters: dose 30 mg/kg; conditions: in vivo
[16] = Cmax in rat at 3 mg/kg, po; assay type: ADME, organism-based; parameters: dose 3 mg/kg, route oral; conditions: in vivo
Rattus norvegicus [17] = assay: Antiinsomnia activity in po dosed rat assessed as increase in sleep consolidation after 5 hrs; assay type: functional, organism-based
[18] = molecular target: D(3) dopamine receptor (Homo sapiens) (UniProt P35462); assay: Binding affinity to dopamine receptor D3 at 10 uM
[19] = molecular target: T3, Alpha-1A adrenergic receptor (Homo sapiens) (UniProt P35348); assay: Binding affinity to adrenergic alpha 1 receptor at 10 uM
T3 sequence (whole entry): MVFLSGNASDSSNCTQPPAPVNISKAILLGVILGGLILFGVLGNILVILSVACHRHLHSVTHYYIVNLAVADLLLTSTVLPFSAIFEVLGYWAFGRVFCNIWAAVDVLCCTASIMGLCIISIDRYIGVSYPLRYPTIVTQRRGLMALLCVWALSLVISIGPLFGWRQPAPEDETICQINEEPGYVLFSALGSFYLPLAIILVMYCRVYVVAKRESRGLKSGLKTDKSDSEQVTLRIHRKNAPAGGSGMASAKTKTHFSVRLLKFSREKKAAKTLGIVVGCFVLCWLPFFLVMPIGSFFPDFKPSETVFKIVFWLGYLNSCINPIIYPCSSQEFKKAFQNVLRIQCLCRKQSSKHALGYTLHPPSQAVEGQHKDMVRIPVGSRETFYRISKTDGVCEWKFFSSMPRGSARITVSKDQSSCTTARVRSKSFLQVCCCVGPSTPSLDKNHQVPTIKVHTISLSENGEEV

[20] = Half life in po dosed rat; assay type: ADME, organism-based; conditions: in vivo
[21] = Drug uptake in rat brain at 0.3 mg/kg after 0.75 hrs; assay type: ADME, organism-based; parameters: dose 0.3 mg/kg; conditions: read-out: Drug uptake
Rattus norvegicus [22] = assay: Total clearance in iv dosed rat; assay type: ADME, organism-based; conditions: in vivo
[23] = molecular target: D(1B) dopamine receptor (Homo sapiens) (UniProt P21918); assay: Binding affinity to dopamine receptor D5 at 10 uM
Cytochrome P450 2D6 = Cytochrome P450 2D6 (Homo sapiens, UniProt P10635); assay: Inhibition of CYP2D6 in human liver microsomes; assay type: ADME, Microsome
Rattus norvegicus [24] = assay: Antiinsomnia activity in po dosed rat assessed as decrease in non-rapid eye movement bout number after 5 hrs; assay type: functional, organism-based
Cytochrome P450 2C19 = Cytochrome P450 2C19 (Homo sapiens, UniProt P33261); assay: Inhibition of […] in human liver microsomes; assay type: ADME, Microsome
[25] = Plasma concentration in rat at 0.3 mg/kg after 0.75 hrs; assay type: ADME, organism-based; parameters: dose 0.3 mg/kg
[26] = molecular target: T4, Alpha-2A adrenergic receptor (Homo sapiens) (UniProt P08913); assay: Binding affinity to adrenergic alpha 2 receptor at 10 uM
T4 sequence (whole entry): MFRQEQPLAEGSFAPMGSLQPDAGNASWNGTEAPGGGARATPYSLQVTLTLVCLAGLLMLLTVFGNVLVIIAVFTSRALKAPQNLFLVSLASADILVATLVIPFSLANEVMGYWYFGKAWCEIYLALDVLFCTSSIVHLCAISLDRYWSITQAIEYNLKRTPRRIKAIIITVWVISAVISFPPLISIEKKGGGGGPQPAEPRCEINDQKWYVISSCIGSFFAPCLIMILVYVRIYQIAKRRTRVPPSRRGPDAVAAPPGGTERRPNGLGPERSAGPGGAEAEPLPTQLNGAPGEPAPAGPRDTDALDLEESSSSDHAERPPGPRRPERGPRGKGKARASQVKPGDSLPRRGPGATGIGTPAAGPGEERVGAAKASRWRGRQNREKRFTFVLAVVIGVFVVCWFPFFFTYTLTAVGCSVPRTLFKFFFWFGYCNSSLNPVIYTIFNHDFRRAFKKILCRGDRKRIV

[27] = Ratio of drug level in brain to plasma in rat at 0.3 mg/kg; assay type: ADME, organism-based; parameters: dose 0.3 mg/kg; conditions: read-out: BPR
Rattus norvegicus [28] = assay: Oral bioavailability in rat; assay type: ADME, organism-based; conditions: in vivo
Cytochrome P450 1A2 = molecular target: T5, Cytochrome P450 1A2 (Homo sapiens, UniProt P05177); assay: Inhibition of CYP1A2 in human liver microsomes; assay type: ADME, Microsome
T5 sequence (P05177 whole entry): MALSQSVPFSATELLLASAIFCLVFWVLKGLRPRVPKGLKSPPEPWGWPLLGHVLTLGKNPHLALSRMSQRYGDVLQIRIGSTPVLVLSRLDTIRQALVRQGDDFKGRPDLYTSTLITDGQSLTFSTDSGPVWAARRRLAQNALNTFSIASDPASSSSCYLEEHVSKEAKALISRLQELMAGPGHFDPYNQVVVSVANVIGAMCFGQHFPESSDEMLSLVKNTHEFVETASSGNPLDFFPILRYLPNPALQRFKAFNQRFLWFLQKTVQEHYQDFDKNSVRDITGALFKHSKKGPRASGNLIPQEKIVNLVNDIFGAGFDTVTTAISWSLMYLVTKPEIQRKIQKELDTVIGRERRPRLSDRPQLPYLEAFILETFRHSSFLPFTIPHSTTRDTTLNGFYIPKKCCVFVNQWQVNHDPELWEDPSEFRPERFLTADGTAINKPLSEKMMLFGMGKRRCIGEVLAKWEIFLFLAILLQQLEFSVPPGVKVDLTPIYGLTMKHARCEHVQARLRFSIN

Rattus norvegicus [29] = assay: Inhibition of DOI-induced hypolocomotion in rat drug coadministered with DOI 10 mins prior testing; assay type: functional

5-hydroxytryptamine receptor 2A, sequence (P28223 whole entry): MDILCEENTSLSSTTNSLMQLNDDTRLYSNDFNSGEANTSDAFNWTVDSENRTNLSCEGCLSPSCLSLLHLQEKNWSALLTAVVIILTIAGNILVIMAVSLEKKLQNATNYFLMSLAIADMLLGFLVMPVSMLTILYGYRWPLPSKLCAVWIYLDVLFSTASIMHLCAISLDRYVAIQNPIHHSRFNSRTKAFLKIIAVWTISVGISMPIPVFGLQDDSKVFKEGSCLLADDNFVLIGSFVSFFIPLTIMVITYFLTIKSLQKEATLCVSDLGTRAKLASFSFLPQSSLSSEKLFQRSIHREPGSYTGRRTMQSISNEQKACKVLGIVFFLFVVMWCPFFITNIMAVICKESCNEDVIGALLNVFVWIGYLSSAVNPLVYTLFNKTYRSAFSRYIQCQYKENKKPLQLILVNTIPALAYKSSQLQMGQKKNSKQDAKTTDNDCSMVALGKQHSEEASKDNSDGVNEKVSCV
D(1B) dopamine receptor (Homo sapiens), sequence (P21918 whole entry): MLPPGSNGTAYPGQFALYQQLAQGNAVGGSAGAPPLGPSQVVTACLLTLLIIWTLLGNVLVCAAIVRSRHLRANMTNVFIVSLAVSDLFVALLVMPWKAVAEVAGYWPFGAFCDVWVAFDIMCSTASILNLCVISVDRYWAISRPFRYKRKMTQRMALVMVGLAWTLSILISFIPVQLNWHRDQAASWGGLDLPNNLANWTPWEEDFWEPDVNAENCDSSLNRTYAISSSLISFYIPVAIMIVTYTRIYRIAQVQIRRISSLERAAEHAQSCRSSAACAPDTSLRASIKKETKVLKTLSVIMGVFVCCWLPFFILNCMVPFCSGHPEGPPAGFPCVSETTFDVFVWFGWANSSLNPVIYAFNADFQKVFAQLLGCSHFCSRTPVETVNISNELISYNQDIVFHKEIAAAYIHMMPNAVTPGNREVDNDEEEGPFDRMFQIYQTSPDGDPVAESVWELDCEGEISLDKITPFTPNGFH
Cytochrome P450 2C9, sequence (P11712 whole entry): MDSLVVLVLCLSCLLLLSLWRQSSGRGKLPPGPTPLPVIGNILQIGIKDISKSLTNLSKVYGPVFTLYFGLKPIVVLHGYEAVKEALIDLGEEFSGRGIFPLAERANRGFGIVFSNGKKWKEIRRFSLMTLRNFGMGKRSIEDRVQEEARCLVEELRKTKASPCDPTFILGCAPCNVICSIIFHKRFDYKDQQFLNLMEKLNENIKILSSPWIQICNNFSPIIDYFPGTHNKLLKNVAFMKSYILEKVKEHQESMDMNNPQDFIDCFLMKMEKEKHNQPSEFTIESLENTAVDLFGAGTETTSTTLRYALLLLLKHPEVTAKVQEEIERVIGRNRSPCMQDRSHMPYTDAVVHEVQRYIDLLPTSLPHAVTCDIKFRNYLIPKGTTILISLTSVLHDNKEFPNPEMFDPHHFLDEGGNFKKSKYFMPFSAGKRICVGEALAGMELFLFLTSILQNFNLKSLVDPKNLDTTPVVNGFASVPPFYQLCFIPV
Cytochrome P450 3A4, sequence (P08684 whole entry): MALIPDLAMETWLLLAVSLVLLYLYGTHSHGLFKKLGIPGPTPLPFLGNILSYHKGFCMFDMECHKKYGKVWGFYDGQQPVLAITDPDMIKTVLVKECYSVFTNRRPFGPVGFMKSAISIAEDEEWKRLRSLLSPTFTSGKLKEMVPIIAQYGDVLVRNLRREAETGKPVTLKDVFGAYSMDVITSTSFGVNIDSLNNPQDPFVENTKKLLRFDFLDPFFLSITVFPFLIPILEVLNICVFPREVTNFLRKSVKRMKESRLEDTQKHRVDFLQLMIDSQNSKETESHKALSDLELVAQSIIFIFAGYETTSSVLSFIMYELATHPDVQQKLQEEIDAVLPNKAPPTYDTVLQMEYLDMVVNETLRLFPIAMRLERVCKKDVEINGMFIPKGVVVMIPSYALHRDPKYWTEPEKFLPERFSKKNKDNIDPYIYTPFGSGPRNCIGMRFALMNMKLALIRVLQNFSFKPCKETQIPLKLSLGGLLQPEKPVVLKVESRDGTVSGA
D(1A) dopamine receptor (Homo sapiens), sequence (P21728 whole entry): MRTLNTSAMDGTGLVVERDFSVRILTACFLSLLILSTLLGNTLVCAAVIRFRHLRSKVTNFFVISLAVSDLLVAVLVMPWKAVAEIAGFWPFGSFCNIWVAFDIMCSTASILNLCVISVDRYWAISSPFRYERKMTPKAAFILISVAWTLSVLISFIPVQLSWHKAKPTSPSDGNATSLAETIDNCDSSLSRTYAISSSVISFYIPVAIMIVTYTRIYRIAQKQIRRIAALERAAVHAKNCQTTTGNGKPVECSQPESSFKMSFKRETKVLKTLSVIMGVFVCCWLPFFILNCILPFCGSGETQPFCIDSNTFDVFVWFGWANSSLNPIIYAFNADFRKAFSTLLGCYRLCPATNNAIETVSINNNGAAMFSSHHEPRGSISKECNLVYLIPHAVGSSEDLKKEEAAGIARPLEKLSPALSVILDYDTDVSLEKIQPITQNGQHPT
Cytochrome P450 2D6, sequence (P10635 whole entry): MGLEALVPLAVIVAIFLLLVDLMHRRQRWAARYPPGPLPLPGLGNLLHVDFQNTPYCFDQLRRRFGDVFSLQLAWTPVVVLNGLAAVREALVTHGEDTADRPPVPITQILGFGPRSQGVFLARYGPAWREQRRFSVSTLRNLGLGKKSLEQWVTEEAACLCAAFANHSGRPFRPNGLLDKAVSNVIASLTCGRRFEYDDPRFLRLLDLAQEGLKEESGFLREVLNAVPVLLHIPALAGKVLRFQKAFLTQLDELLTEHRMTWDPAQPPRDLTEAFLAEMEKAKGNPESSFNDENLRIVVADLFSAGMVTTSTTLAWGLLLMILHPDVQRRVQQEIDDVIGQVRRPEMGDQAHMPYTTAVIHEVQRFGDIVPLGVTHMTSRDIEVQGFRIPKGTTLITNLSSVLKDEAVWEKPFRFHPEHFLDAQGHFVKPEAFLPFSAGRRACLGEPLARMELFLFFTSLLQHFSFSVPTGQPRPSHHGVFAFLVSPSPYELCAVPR
D(3) dopamine receptor (Homo sapiens), sequence (P35462 whole entry): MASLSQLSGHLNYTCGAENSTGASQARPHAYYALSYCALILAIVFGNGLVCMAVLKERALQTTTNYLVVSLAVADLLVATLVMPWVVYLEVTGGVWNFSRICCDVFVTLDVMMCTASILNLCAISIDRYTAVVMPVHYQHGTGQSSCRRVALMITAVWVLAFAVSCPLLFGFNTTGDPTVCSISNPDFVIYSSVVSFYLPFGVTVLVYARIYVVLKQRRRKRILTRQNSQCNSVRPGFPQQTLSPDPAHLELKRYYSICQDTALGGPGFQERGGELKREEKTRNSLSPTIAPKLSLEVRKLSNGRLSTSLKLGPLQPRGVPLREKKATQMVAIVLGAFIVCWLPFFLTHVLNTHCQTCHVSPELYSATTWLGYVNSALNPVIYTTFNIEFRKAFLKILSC
Cytochrome P450 2C19, sequence (P33261 whole entry): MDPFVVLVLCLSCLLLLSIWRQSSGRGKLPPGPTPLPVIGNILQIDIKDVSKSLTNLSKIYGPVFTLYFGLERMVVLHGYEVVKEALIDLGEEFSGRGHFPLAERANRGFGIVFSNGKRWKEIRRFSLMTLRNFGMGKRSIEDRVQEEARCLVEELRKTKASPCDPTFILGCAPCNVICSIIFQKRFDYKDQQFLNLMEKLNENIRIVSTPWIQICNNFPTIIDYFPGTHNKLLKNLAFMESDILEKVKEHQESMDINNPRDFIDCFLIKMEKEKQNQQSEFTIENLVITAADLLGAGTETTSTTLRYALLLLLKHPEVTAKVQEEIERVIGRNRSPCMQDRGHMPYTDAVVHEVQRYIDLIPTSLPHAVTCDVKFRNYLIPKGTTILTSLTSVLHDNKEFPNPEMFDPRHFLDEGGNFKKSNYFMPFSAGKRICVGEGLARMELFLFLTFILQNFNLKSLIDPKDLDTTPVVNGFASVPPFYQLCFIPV
D(2) dopamine receptor (Homo sapiens), sequence (P14416 whole entry): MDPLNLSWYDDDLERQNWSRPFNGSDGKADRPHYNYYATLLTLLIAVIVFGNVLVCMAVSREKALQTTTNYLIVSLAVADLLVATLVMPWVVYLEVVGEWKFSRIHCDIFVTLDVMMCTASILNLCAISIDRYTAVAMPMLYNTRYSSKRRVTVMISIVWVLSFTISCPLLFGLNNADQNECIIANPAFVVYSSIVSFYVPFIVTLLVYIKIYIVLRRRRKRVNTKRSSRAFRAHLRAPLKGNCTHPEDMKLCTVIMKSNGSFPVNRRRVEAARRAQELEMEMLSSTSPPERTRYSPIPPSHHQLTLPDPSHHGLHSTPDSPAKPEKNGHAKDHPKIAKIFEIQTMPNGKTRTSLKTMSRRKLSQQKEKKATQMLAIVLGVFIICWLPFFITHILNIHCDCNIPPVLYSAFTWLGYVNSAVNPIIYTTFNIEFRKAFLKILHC

Cc1nc2ccccn2c1C(=O)N1CCN(CCc2ccc(F)cc2F)CC1
Ki [1]: 997 nM
Ki [2]: 3.5 nM

O=C(c1cc2ncccn2n1)N1CCN(CCc2ccc(F)cc2F)CC1
Ki [1]: 1360 nM
Ki [2]: 5.6 nM

O=C(c1cccn2cc(Br)nc12)N1CCN(CCc2ccc(F)cc2F)CC1
Ki [1]: 682 nM
Ki [2]: 1.7 nM

O=C(c1cnn2cccnc12)N1CCN(CCc2ccc(F)cc2F)CC1
Ki [1]: 910 nM
Ki [2]: 3.8 nM

O=C(c1cnc2ccccn12)N1CCN(CCc2ccc(F)cc2F)CC1
Ki [1]: 739 nM
Ki [2]: 1.7 nM

Cn1cc(Br)c(C(=O)N2CCN(CC(=O)c3ccc(F)cc3)CC2)n1
Activity (Rattus norvegicus [3]): Active

Nc1cccn2cc(C(=O)N3CCN(CCc4ccc(F)cc4F)CC3)nc12
Ki [1]: 190 nM
Ki [2]: 2.7 nM

Cc1cc(C)n2ccnc2c1C(=O)N1CCN(CCc2ccc(F)cc2F)CC1
Ki [1]: 153 nM
Ki [2]: 3.6 nM

O=C(c1cc2n(n1)CCCC2)N1CCN(CCc2ccc(F)cc2F)CC1
Ki [1]: 717 nM
Ki [2]: 2.6 nM

O=C(c1cnn2cc(Cl)ccc12)N1CCN(CCc2ccc(F)cc2F)CC1
Ki [1]: 575 nM
Ki [2]: 5.9 nM

O=C(c1cccn2cc(Cl)nc12)N1CCN(CCc2ccc(F)cc2F)CC1
Ki [1]: 391 nM
Ki [2]: 1.5 nM

O=C(c1cccn2ccnc12)N1CCN(CCc2ccc(F)cc2F)CC1
AUClast (Rattus norvegicus [4]): 440 ng·h/mL
Activity [5]: < 50%
half-life [6]: 16 min
fraction unbound [7]: 0.326
Activity [8]: < 50%
Ki [1]: 524 nM
Vdss (Rattus norvegicus [9]): 1.7 L/kg
Activity (Canis familiaris [10]): Non-toxic
Activity (Rattus norvegicus [11]): Active
IC50 (Cytochrome P450 3A4): > 40000 nM
IC50 (Cytochrome P450 2C9): > 40000 nM
Activity (Rattus norvegicus [12]): Dose-dependent effect
Activity [13]: < 50%
Activity (Rattus norvegicus [14]): Active
Activity (Canis familiaris [15]): Non-toxic
Cmax [16]: 943 ng/mL
Activity (Rattus norvegicus [17]): Dose-dependent effect
Activity [18]: < 50%
Activity [19]: < 50%
half-life [20]: 30 min
concentration at 0.75 h [21]: 14.5 ng/mL
clearance (Rattus norvegicus [22]): 58.3 mL/min/kg
Activity [23]: < 50%
IC50 (Cytochrome P450 2D6): > 40000 nM
Activity (Rattus norvegicus [24]): Dose-dependent effect
IC50 (Cytochrome P450 2C19): > 40000 nM
concentration at 0.75 h [25]: 11 ng/mL
Activity [26]: < 50%
Kp [27]: 1.32
bioavailability (Rattus norvegicus [28]): 47%
IC50 (Cytochrome P450 1A2): > 40000 nM
ED50 (Rattus norvegicus [29]): 0.3 mg/kg
